The text below walks through data of patent publication US20120213805A1, “Amatoxin-Armed Tartget-Binding Moieties for the Treatment of Cancer” (priority 2009, published 2012).

The target in one data set is RNA-polymerase II (Homo sapiens, UniProt P24928). The conditions noted are these: not covalently bound; read-out: KD of complex between amanitin and RNA-polymerase II; cited from earlier work.
The next data set concerns BxPC-3 tumor xenografts. The data set can be described thus: BxPC-3 xenograft mouse tumor model. It is filed as in vivo, NOD/SCID mice. How it is done:
(§1) Five- to six-week old immunodeficient NOD/SCID mice were used for all experiments. BxPC-3 pancreatic or PC-3 prostate tumor cells (5×10^6 in 100 pi PBS) were transplanted subcutaneously to the right flank of the mice. Ten days later, when BxPC-3 tumors reached a volume of 30-80 mm^3 and PC-3 tumors reached a volume of 40-190 mm^3, the treatment was initiated. Animals received either control huHEA125 mAb at a dose of 15 mg/kg or huHEA125-amanitin conjugate (huHEA125-Ama) at a dose of 50 μg/kg of amanitin. Antibody and conjugate were administered as a single intraperitoneal injection.
(§2) Tumor growth was monitored for 16 days after initiation of the treatment. Tumor size was measured externally every third day using a caliper. Tumor volume was calculated according to the formula: V=π/6*a*b*c, where a, b and c are diameters in three dimensions. Data are presented as a relative tumor size/volume increase from the time of antibody administration.

The test system of the next data set is PC-3 tumor xenografts. The data set can be described thus: PC-3 xenograft mouse tumor model. The class given is in vivo, NOD/SCID mice. How it is done:
as §1, §2

For data set [1], the target named is T1, epithelial cell adhesion molecule (EpCAM) (human, UniProt P16422 24-314).
T1 construct: whole, on cells; also called CD326; EpCAM antigen
T1 sequence (looked up): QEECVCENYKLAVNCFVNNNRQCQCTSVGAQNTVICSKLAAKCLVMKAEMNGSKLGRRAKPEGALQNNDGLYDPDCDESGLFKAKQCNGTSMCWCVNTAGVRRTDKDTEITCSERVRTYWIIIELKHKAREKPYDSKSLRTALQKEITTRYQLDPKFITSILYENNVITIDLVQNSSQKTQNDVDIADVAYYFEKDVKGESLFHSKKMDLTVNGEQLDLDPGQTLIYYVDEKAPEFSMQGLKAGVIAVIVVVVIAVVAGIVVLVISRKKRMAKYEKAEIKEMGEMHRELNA
The data set can be described thus: binding to EpCAM-expressing cells; method not stated.

Setting [2] is: 50 μg/kg of amanitin, single i.p. injection, BxPC-3.
[3] abbreviates: 50 μg/kg of amanitin, single i.p. injection, PC-3 tumor bearing mice.

With amanitin, the Kd on RNA-polymerase II was 3 nM.
“huHEA125: chimeric anti-EpCAM antibody: mouse HEA125 variable domains with human kappa constant light chain and human IgG1 constant heavy chain”: the tumor volume increase entry is “approximately 880%” in the data set on BxPC-3 tumor xenografts (15 mg/kg single i.p. injection, day 16, BxPC-3, FIG. 9) and “approximately 550%” in the data set with PC-3 tumor xenografts (15 mg/kg single i.p. injection, day 10, PC-3, FIG. 10).
Turning to “α-Amanitin-glutarate-huHEA125 [huHEA125-amanitin]”, in the data set on BxPC-3 tumor xenografts (setting [2]), the “day from which tumor volume regressed dramatically” value worked out at 7 days, the “mice responding to treatment” value is recorded as “All mice responded to treatment” and the tumor growth entry is listed as “strongly inhibited”. For the same molecule, the “body weight of the mice” value in the data set with BxPC-3 tumor xenografts (50 μg/kg of amanitin, single i.p. injection, BxPC-3 tumor bearing mice) is “neither a decrease in body weight”. Moreover, the “mice with tumor completely eradicated” value in the data set on BxPC-3 tumor xenografts (50 μg/kg of amanitin, single i.p. injection, day 16, BxPC-3) is 50%. Moreover, in the data set on BxPC-3 tumor xenografts (50 μg/kg of amanitin, single intraperitoneal injection, BxPC-3 tumor bearing mice), the tolerability result is listed as “well tolerated”. Also, the tumor growth result with PC-3 tumor xenografts (50 μg/kg of amanitin, single i.p. injection, PC-3) is recorded as “strongly retarded”. Further, in the data set on PC-3 tumor xenografts (setting [3]), the “body weight of the mice” value is “No decrease in the body weight” and the tolerability result is listed as “well tolerated”.

B1: chimeric antibody huHEA125 (antibody, human IgG1, kappa, V domains shown)
VH: EVKLLESGGGLVQPGGSLKLSCAASGFDFSRFWMTWVRQAPGKGLEWIGEINLDSSTINYTPSLKDKFIISRDNAKNTLFLQMSKVRSEDTALYYCSRGISMDYWGQGTSVTVSS
VL: DILLTQSPAILSVSPGERVSFSCRASQSIGISLHWYQQRPSDSPRLLIKYASESISGIPSRFSGSGSGTDFTLSINSVESEDIADYYCQQSNIWPTTFGAGTKLELKR
notes: also called unmodified huHEA125 antibody; non-conjugated huHEA125 antibody
With B1, the affinity in data set [1], expressed as Kd, was 2.2 nM.

The Kd is the concentration at which binding is half-saturated.
